According to publication PMC11982498 (Redox Biology, 2025):
pIC50: −log10 of the molar value.

Legend:
[1] = system: BCL-2, BAX, Cyto-C, Cleaved-caspase 9, Cleaved-caspase 3 in hippocampus of APP/PS1 mice; test: Western blot and immunofluorescence of apoptosis related factors in hippocampus; format: in vivo; details: B14 10, 20, 40 mg/kg i.p. every other day
Experimental: Protein samples (25–40 μg) were separated using 10 % SDS-PAGE and subsequently transferred onto PVDF membranes (0.22 μm, Servicebio, Guangzhou, China) via electro transfer. Following blocking with TBST solution (Servicebio, Guangzhou, China) containing 5 % BSA (Solarbio, Beijing, China) for approximately 60 min at room temperature, the membrane was exposed to various primary antibodies overnight at 4 °C on a rotating shaker. Then, the membranes were incubated with HRP-conjugated secondary antibody (Affinity, Changzhou, China) for 2 h. Protein bands were then detected using an ECL kit. The signal intensity of each target protein was quantified using Image J 1.8.0 software (Bio-Rad Laboratories, California, USA).
Five months old male APP/PS1 mice, weighing 25–33 g, were purchased from Guangdong Medical Laboratory Animal Center and housed in the Laboratory Animal Center of Sun Yat-sen University (Guangzhou, China) for experimentation. All procedures were approved by the Animal Care and Use Committee of Sun Yat-sen University and complied with legal requirements and national guidelines for the care and maintenance of laboratory animals (Approval No. SYSU-IACUC-2024-002032). The mice were housed in a specific pathogen-free environment with a controlled temperature of 22 ± 1 °C and a 12-h dark/light cycle. […]

[2] = system: BAX gene transcription in SH-SY5Y cells; test: Real-time RT-PCR in 25 μM Aβ1-42 cell model, BAX; format: cell-based, human
Experimental: SH-SY5Y cells were treated with or without B14, and total RNA was subsequently isolated and purified. Reverse transcription was performed using a cDNA synthesis kit. The relative transcription levels of the genes were evaluated through quantitative real-time PCR using the SYBR Green-based method, as described in the Supplementary Date. Details regarding the primer sequences and the raw data can be found in Table S7 and Table S8.
^a -∆∆Ct = -[(Ct value of genes in treated sample - Ct value of genes in control) - (Ct value of β-actin in treated sample - Ct value of β-actin in control)]. ^b F: The relative expression fold.
Experiment 2: The Ct values of BCL-2 and Bax in 25 μM Aβ1-42 model with different concentration of B14.
Total RNA was extracted from cells and mice liver tissue using RNAiso Plus (Takara, 9109, Japan). Following sample homogenization, chloroform was added, and the solution was allowed to have phase separation into an upper aqueous layer (containing RNA), an interphase, and a lower organic layer (containing DNA and proteins). RNA was precipitated from the aqueous phase using isopropanol, while DNA was precipitated from the aqueous-organic interphase using ethanol. Complementary DNA (cDNA) was synthesized using the One-Step RT-PCR Kit (Takara, Cat#639503, Japan).
Quantitative real-time polymerase chain reaction (qRT-PCR) was performed using the 2× RealStar SYBR Mixture (GenStar, Cat# A301-10, Guangzhou, China) on a LightCycler 480 II real-time PCR system (Roche, USA). Data were analyzed using the 2^−ΔΔCt method. Actin served as the internal control, and relative mRNA levels were normalized accordingly.

[3] = system: Aβ1-42 aggregation in SH-SY5Y cells; test: Fluorescence imaging of intracellular Aβ1-42 accumulation (ThT); format: cell-based; details: 25 μM Aβ1-42; 25 μM B14, 48 h
Experimental: SH-SY5Y cells were seeded in a 96-well plate (6000 cells/well) in 100 μL medium. After the cells adhered to the wall, SH-SY5Y cells were incubated with serum-free medium containing 25 μM Aβ1-42 for 6 h to allow for the uptake of Aβ1-42 into the cells. Then solutions of B14 at different concentrations were added to the cells, with the mixtures incubated for 48 h. After being washed for three times with pre-cooled PBS, the cells were fixed with freshly prepared 4 % paraformaldehyde (Servicebio, Guangzhou, China) for 10 min at room temperature. After being washed for three times with pre-cooled PBS, the cells were incubated with ThT solution for 20 min at 25 °C in the dark. After washing for three times with pre-cooled PBS, the cells were stained with 10 μg/mL Hoechst 33342 solution (Aladdin, Shanghai, China) for 20 min at 25 °C in the dark. After washing for three times with pre-cooled PBS, the stained cells were observed and photographed with a FV3000 (Olympus, Japan) fluorescence microscope.

[4] = system: Aβ deposition in hippocampus of APP/PS1 mice; test: Immunofluorescence of hippocampal Aβ deposition; format: in vivo; details: B14 10, 20, 40 mg/kg i.p. every other day
From the text: Five months old male APP/PS1 mice, weighing 25–33 g, were purchased from Guangdong Medical Laboratory Animal Center and housed in the Laboratory Animal Center of Sun Yat-sen University (Guangzhou, China) for experimentation. All procedures were approved by the Animal Care and Use Committee of Sun Yat-sen University and complied with legal requirements and national guidelines for the care and maintenance of laboratory animals (Approval No. SYSU-IACUC-2024-002032). The mice were housed in a specific pathogen-free environment with a controlled temperature of 22 ± 1 °C and a 12-h dark/light cycle. The mice were fed with a standard diet, and 30 mice were randomly divided into 6 groups (N = 5). Compound B14 was dissolved in saline and administered at doses of 10, 20, or 40 mg/kg. APP/PS1 male mice were grown until 6 months of age, and then injected intraperitoneally with compound B14 every other day for 60 days. Behavioral experiments were then conducted, and tissue specimens were collected for biochemical analysis.

[5] = system: bio-BCL-2 (BCL-2 IM) (DNA, i motif) CAGCCCCGCTCCCGCCCCCTTCCTCCCGCGCCCGCCCCT; test: SPR; details: K+ 100 mM; 20 mM MES, pH 5.5, 25 °C
[6] = system: SH-SY5Y cells; test: MTT cytotoxicity assay, SH-SY5Y; format: cell-based
Experimental: SH-SY5Y cells, HepG2 cells, HK-2 cells and HT-22 cells were seeded on 96-well plates (5.0×10^3 per well) with 100 μL of culture medium, and incubated for 12 h at 37 °C in a humidified atmosphere with 5% CO2, and then exposed to various concentrations of B14. After 48 h of treatment at 37 °C in a humidified atmosphere with 5% CO2, 100 μL of 0.5 mg/mL MTT solution was added to each well, and the mixture was further incubated for 4 h. The cells in each well were then treated with DMSO (200 μL for each well), and the culture medium was siphoned off, and the absorbance was recorded at 570 nm. All drug doses were parallel tested in triplicate, and the cytotoxicity was evaluated based on the percentage of cell survival in a dose-dependent manner regarding the negative control. The final IC50 values were determined by using Graph Pad Prism 9.0.

O=C(CCN1CCOCC1)Nc1ccc2c(c1)c(=O)c1cc(NC(=O)CCN3CCOCC3)ccc1n2-c1ccc2occc2c1 [Compound B14]
expression level of BCL-2 in hippocampus [1]: effectively increased the expression level of BCL-2 | expression levels of pro-apoptotic factors in hippocampus [1]: decreased the expression levels of BAX, Cyto-C, Cleaved-caspase 9 and Cleaved-caspase 3 | -∆∆Ct, BAX ([2]; 25 μM Aβ1-42 + 6.25 μM B14): -1.71 | F = 2^-∆∆Ct (relative expression fold), BAX ([2]; 25 μM Aβ1-42 + 6.25 μM B14): 3.23 | -∆∆Ct, BAX ([2]; 25 μM Aβ1-42 + 12.5 μM B14): -1.09 | F = 2^-∆∆Ct (relative expression fold), BAX ([2]; 25 μM Aβ1-42 + 12.5 μM B14): 2.13 | -∆∆Ct, BAX ([2]; 25 μM Aβ1-42 + 25 μM B14): -0.80 | F = 2^-∆∆Ct (relative expression fold), BAX ([2]; 25 μM Aβ1-42 + 25 μM B14): 1.71 | ThT fluorescence of SH-SY5Y cells (intracellular Aβ1-42 aggregation) [3]: almost completely disappeared | hippocampal Aβ deposition [4]: significantly reduced in a dose-dependent manner | KD [5]: 2.13 µM | toxicity to SH-SY5Y cells (viability) [6]: no significant toxicity to SH-SY5Y cells | pIC50 ([6]; Homo sapiens, SH-SY5Y, incubation for 48 h): < 4.00
